Measurements published in ChEMBL document CHEMBL1127341, “Synthesis and biological evaluation of 5-[[3,5-bis(1,1-dimethylethyl)- 4-hydroxyphenyl]methylene]oxazoles, -thiazoles, and -imidazoles: novel dual 5-lipoxygenase and cyclooxygenase inhibitors with antiinflammatory activity” (J Med Chem, 1994).
Active and inactive are the calls of the source. The calls are words filed in the database; no cut-off is given here.

How the values were obtained:
[1] = molecular target: T1, Polyunsaturated fatty acid 5-lipoxygenase (Rattus norvegicus) (UniProt P12527); test: Inhibitory activity at 1 uM against 5-lipoxygenase in intact rat basophilic leukemia cells stimulated with the calcium ionophore A-23187; type: cell-based; conditions: RBL-1
T1 sequence (whole entry): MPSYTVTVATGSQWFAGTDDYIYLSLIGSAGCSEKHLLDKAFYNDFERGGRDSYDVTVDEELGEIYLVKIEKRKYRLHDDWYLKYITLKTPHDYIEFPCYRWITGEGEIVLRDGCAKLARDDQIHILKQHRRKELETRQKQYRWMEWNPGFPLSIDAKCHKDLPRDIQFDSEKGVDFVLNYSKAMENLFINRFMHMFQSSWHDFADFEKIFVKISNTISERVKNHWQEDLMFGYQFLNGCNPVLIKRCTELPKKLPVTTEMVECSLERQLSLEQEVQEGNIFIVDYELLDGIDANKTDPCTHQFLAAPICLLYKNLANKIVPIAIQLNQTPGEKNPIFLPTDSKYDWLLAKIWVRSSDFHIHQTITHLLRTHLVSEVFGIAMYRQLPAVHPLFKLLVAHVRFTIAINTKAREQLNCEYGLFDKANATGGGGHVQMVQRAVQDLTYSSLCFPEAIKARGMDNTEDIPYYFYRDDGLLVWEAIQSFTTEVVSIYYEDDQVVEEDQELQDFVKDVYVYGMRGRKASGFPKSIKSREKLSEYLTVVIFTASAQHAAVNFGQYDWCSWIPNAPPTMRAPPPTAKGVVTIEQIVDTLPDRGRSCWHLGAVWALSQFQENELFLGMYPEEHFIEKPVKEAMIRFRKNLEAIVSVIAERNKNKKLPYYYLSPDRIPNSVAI

[2] = molecular target: T1, Polyunsaturated fatty acid 5-lipoxygenase (Rattus norvegicus); test: Inhibitory activity at 10 uM against 5-lipoxygenase in intact rat basophilic leukemia cells stimulated with the calcium ionophore A-23187; type: cell-based; conditions: RBL-1
Rattus norvegicus [3] = test: Inhibition of rat carrageenan induced foot-pad edema at a dose of 10 mg/kg on peroral administration; conditions: po, read-out: Inhibition
Rattus norvegicus [4] = test: 40% inhibition of induced edema in the rat mycobacterium foot-pad edema test; Inactive(N)= <30% inhibition at a dose of 10 mg/kg po; type: functional, organism-based; design: dose 10 mg/kg
Cyclooxygenase = molecular target: T2, Cyclooxygenase (Rattus norvegicus, UniProt P35355+Q63921); conditions: rbl-1
T2 sequence (P35355 whole entry): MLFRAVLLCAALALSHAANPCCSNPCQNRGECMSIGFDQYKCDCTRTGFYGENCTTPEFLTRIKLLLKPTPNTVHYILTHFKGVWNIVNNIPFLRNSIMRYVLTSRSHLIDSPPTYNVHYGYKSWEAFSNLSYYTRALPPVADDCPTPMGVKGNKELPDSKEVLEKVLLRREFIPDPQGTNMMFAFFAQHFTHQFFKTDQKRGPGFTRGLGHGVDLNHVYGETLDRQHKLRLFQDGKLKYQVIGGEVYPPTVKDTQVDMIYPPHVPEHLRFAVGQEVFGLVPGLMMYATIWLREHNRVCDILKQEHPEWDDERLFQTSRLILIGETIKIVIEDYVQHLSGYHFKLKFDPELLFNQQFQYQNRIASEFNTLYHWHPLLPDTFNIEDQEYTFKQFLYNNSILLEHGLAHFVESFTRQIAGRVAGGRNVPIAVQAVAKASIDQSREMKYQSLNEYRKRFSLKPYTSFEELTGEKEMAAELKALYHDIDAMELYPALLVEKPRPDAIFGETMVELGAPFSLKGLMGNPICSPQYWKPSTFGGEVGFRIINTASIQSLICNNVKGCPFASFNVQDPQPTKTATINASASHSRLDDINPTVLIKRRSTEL
T2 sequence (Q63921 whole entry): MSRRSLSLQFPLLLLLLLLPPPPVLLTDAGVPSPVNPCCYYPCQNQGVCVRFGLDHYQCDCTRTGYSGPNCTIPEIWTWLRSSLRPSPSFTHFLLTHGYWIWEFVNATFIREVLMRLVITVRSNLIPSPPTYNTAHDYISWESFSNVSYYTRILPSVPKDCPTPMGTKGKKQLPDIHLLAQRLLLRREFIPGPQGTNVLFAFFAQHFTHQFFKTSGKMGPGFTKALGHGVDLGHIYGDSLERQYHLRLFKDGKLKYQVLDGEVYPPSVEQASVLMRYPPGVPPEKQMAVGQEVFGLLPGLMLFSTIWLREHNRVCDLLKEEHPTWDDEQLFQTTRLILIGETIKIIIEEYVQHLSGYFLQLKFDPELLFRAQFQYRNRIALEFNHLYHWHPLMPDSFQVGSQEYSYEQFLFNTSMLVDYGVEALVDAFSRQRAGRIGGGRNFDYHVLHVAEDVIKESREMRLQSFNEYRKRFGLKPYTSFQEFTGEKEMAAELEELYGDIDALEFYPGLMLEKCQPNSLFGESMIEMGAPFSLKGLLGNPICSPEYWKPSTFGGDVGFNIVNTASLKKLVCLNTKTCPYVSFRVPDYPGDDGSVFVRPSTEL
Description: Inhibition of prostaglandin G/H synthase in intact rat basophilic leukemia cells stimulated with the calcium ionophore A-23187

[5] = molecular target: T3, Polyunsaturated fatty acid 5-lipoxygenase (Rattus norvegicus, UniProt P12527)
T3 sequence (P12527 whole entry): T1 sequence (whole entry)

Rattus norvegicus [6] = test: Inhibition of rat carrageenan induced foot-pad edema at a dose of 30 mg/kg on peroral administration; conditions: po, read-out: Inhibition
[7] = molecular target: T4, Cyclooxygenase (Rattus norvegicus) (UniProt P35355+Q63921); test: Inhibitory activity at 10 uM against Prostaglandin G/H synthase in intact rat basophilic leukemia cells stimulated with the calcium ionophore A-23187; type: cell-based; conditions: RBL-1
[8] = molecular target: T3, Polyunsaturated fatty acid 5-lipoxygenase; test: Inhibitory activity against 5-lipoxygenase in intact rat basophilic leukemia cells stimulated with the calcium ionophore A-23187; Inactive(N)= <50% inhibition at 10 uM; type: cell-based; conditions: rbl-1
Rattus norvegicus [9] = test: 40% inhibition of induced edema in the rat mycobacterium foot-pad edema test; type: functional
Rattus norvegicus [10] = test: Inhibition of rat carrageenan induced foot-pad edema at a dose of 30 mg/kg on peroral administration; N=Inactive; type: functional, organism-based; design: dose 30 mg/kg
Rattus norvegicus [11] = test: Inhibition of rat carrageenan induced foot-pad edema at a dose of 30 mg/kg on peroral administration; Inactive(N)= <25% inhibition at a dose of 30 mg/kg po; type: functional, organism-based
Rattus norvegicus [12] = test: 40% inhibition of induced edema in the rat mycobacterium foot-pad edema test; N=Inactive; type: functional, organism-based
[13] = molecular target: T3, Polyunsaturated fatty acid 5-lipoxygenase; test: Inhibitory activity against 5-lipoxygenase in intact rat basophilic leukemia cells stimulated with the calcium ionophore A-23187; N=Inactive; type: cell-based; conditions: rbl-1
[14] = molecular target: T4, Cyclooxygenase (Rattus norvegicus); test: Inhibitory activity against Prostaglandin G/H synthase in intact rat basophilic leukemia cells stimulated with the calcium ionophore A-23187 at 10 uM; type: cell-based; conditions: RBL-1
[15] = molecular target: T1, Polyunsaturated fatty acid 5-lipoxygenase (Rattus norvegicus); test: Inhibitory activity against 5-lipoxygenase in intact rat basophilic leukemia cells stimulated with the calcium ionophore A-23187; type: cell-based; conditions: RBL-1; concentration not given here

Row | SMILES | IC50 (Cyclooxygenase) [µM] | IC50 [5] [nM] | inhibition in vivo at 10 mg/kg (Rattus norvegicus [3]) [%] | inhibition in vivo at 30 mg/kg (Rattus norvegicus [6]) [%] | other results
1 | CN(C)C(=N)NC1=NC(=O)/C(=C/c2cc(C(C)(C)C)c(O)c(C(C)(C)C)c2)S1 | – | – | – | – | inhibition [1]: 100%
2 | CN(C)CCNC1=NC(=O)/C(=C/c2cc(C(C)(C)C)c(O)c(C(C)(C)C)c2)S1 | – | – | – | – | inhibition [2]: 79%
3 | CC(C)(C)c1cc(/C=C2\CC(=S)NC2=O)cc(C(C)(C)C)c1O | 2.4 | 1700 | 19 | 39 | ID40 (Rattus norvegicus [4]): inactive
4 | O=C1NC(=O)/C(=C/c2cc(I)c(O)c(I)c2)S1 | – | – | – | – | inhibition [7]: 60%; IC50 [8]: Inactive
5 | CON1CC/C(=C\c2cc(C(C)(C)C)c(O)c(C(C)(C)C)c2)C1=O [E-5110] | – | – | – | – | ID40 (Rattus norvegicus [9]): 1.9 mg/kg
6 | CNC1=NC(=O)/C(=C/c2cc(C(C)(C)C)c(O)c(C(C)(C)C)c2)S1 | – | – | – | – | IC50 [8]: Inactive
7 | CC(C)(C)c1cc(/C=C2\OC(=O)NC2=O)cc(C(C)(C)C)c1O | 0.65 | 2800 | 35 | 51 | ID40 (Rattus norvegicus [9]): 3.7 mg/kg
8 | CC(C)(C)c1cc(/C=C2\CCOC2=O)cc(C(C)(C)C)c1O | – | – | 17 | 28 | ID40 (Rattus norvegicus [9]): 3.7 mg/kg
9 | CC(C)(C)c1cc(/C=C2\SC(=S)NC2=O)cc(C(C)(C)C)c1O | 0.012 | 380 | 32 | 36 | –
10 | C/C(=C1/SC(NC#N)=NC1=O)c1cc(C(C)(C)C)c(O)c(C(C)(C)C)c1 | 5.1 | 1200 | – | – | inhibition (Rattus norvegicus [10]): inactive
11 | C/C(=C1/SC(=S)NC1=O)c1cc(C(C)(C)C)c(O)c(C(C)(C)C)c1 | 4.5 | 2300 | – | – | inhibition (Rattus norvegicus [11]): inactive
12 | CC(C)(C)c1cc(/C=C2\OC(N=C(N)N)=NC2=O)cc(C(C)(C)C)c1O.CS(=O)(=O)O | 0.34 | 1200 | 33 | 48 | ID40 (Rattus norvegicus [9]): 5.7 mg/kg
13 | CC(C)c1cc(/C=C2\SC(=O)NC2=O)cc(C(C)C)c1O | 0.82 | 220 | – | – | ID40 (Rattus norvegicus [12]): inactive
14 | CC(C)(C)c1cc(/C=C2\SC(=O)NC2=O)cc(C(C)(C)C)c1 | 4.6 | 3300 | – | – | inhibition (Rattus norvegicus [10]): inactive
15 | CONC1=NC(=O)/C(=C/c2cc(C(C)(C)C)c(O)c(C(C)(C)C)c2)S1 | – | – | – | – | IC50 [13]: Not Active
16 | O=C1NC(=O)/C(=C/c2ccc(O)cc2)S1 | – | – | – | – | IC50 [13]: Not Active
17 | C/C(=C1/SC(=O)NC1=O)c1cc(C(C)(C)C)c(O)c(C(C)(C)C)c1 | – | 480 | – | – | inhibition [14]: 52%
18 | CN(C)C1=NC(=O)/C(=C/c2cc(C(C)(C)C)c(O)c(C(C)(C)C)c2)S1 | – | – | – | – | inhibition [15]: 65%
19 | C/C(=C1/SC(N=C(N)N)=NC1=O)c1cc(C(C)(C)C)c(O)c(C(C)(C)C)c1 | 1.9 | 1600 | – | – | inhibition (Rattus norvegicus [10]): inactive
20 | O=C1NC(=O)/C(=C/c2cc(-c3ccccc3)c(O)c(-c3ccccc3)c2)S1 | 9.6 | 160 | 11 | 41 | ID40 (Rattus norvegicus [4]): inactive
21 | CN(O)C1=NC(=O)/C(=C/c2cc(C(C)(C)C)c(O)c(C(C)(C)C)c2)S1 [listing 2 of 2 here] | – | – | – | – | inhibition (Rattus norvegicus [10]): inactive
22 | CC(C)(C)c1cc(/C=C2\SC(=N)NC2=O)cc(C(C)(C)C)c1O.CS(=O)(=O)O [DARBUFELONE MESYLATE] | 0.39 | 770 | 52 | 61 | ID40 (Rattus norvegicus [9]): 0.6 mg/kg
23 | CC(C)(C)c1cc(/C=C2\SC(NCCCC(=O)O)=NC2=O)cc(C(C)(C)C)c1O | – | – | – | – | inhibition [2]: 53%
24 | CN1C(NC(=N)N)=NC(=O)/C1=C/c1cc(C(C)(C)C)c(O)c(C(C)(C)C)c1 | 2.1 | 1300 | – | – | inhibition (Rattus norvegicus [10]): inactive
25 | CC(C)(C)c1cc(/C=C2\OC(=S)NC2=O)cc(C(C)(C)C)c1O | 1.7 | 840 | 32 | 40 | ID40 (Rattus norvegicus [9]): 12.4 mg/kg

Continued, in another order:

Row | IC50 (Cyclooxygenase) [µM] | IC50 [5] [nM] | SMILES | inhibition in vivo at 10 mg/kg (Rattus norvegicus [3]) [%] | inhibition in vivo at 30 mg/kg (Rattus norvegicus [6]) [%] | other results
26 | 10 | 7300 | CN(O)C1=NC(=O)/C(=C/c2cc(C(C)(C)C)c(O)c(C(C)(C)C)c2)S1 [listing 1 of 2 here] | – | – | –
27 | 0.33 | 1700 | CN(O)C1=NC(=O)/C(=C/c2cc(C(C)(C)C)c(O)c(C(C)(C)C)c2)S1.Cl | – | – | ID40 (Rattus norvegicus [9]): 6.2 mg/kg
28 | 0.083 | 910 | CC(C)(C)c1cc(/C=C2\SC(N=C(N)N)=NC2=O)cc(C(C)(C)C)c1O | 34 | 40 | ID40 (Rattus norvegicus [9]): 2.2 mg/kg
29 | 0.8 | 3700 | CC(C)(C)c1cc(/C=C2\SC(NO)=NC2=O)cc(C(C)(C)C)c1O | – | – | inhibition (Rattus norvegicus [10]): inactive
30 | 1.1 | 2600 | CC(C)(C)c1cc(/C=C2\OC(NC#N)=NC2=O)cc(C(C)(C)C)c1O | – | – | inhibition (Rattus norvegicus [10]): inactive
31 | 0.6 | 650 | CSC1=NC(=O)/C(=C/c2cc(C(C)(C)C)c(O)c(C(C)(C)C)c2)S1 | 36 | 47 | ID40 (Rattus norvegicus [12]): inactive
32 | 0.35 | – | CC(C)(C)c1cc(/C=C2\SC(=O)NC2=O)cc(C(C)(C)C)c1O | 54 | 59 | ID40 (Rattus norvegicus [9]): 2 mg/kg
33 | 4.6 | 780 | CN1C(=O)NC(=O)/C1=C/c1cc(C(C)(C)C)c(O)c(C(C)(C)C)c1 | – | – | inhibition (Rattus norvegicus [11]): inactive
34 | 3.5 | 700 | CN1C(NC#N)=NC(=O)/C1=C/c1cc(C(C)(C)C)c(O)c(C(C)(C)C)c1 | – | – | inhibition (Rattus norvegicus [10]): inactive
35 | 0.79 | 170 | CN1C(=S)NC(=O)/C1=C/c1cc(C(C)(C)C)c(O)c(C(C)(C)C)c1 | – | – | inhibition (Rattus norvegicus [10]): inactive
36 | 0.16 | 630 | CC(C)(C)c1cc(/C=C2\SC(NC#N)=NC2=O)cc(C(C)(C)C)c1O | 29 | 49 | ID40 (Rattus norvegicus [12]): inactive
